Patent publication US20230081426A1, “COMPOUNDS AND METHODS FOR KRAS MODULATION AND INDICATIONS THEREFOR” (Plexxikon Inc., priority 2020, published 2023)

What was measured:
[1] = molecular target: T1, G12D-mutant human KRAS (amino acid residues 1-188) (Homo sapiens, UniProt P01116, G12D); experiment: KRAS Binding Disruption Assay (AlphaScreen; biotinylated KRpep-2d analogue or RAF1-RBD), G12D; conditions: KRAS G12D; geometric mean; read-out: KRAS GMean IC50 (uM) MUTATION: G12D
T1 construct: G12D or G12C-mutant human KRAS (amino acid residues 1-188) with FLAG tag; made in house; host or cells: E. coli
T1 sequence (P01116 1-188 isoform P01116-2 G12D): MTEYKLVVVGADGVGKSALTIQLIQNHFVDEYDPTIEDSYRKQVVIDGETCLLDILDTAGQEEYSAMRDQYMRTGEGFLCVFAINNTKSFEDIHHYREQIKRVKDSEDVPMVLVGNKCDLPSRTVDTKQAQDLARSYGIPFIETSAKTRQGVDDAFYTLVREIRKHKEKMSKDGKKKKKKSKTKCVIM
How it was run: (§1)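 Compounds are titrated against 5-20 nM mutant KRAS and 5-20 nM of either a biotinylated KRpep-2d analogue or RAF1-RBD, incubated 1 h at 25° C. Disruption is detected as reduced Alpha signal after 1 h with donor and acceptor beads at 10 μg/mL.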

[2] = molecular target: T2, G12C-mutant human KRAS (amino acid residues 1-188) (Homo sapiens, UniProt P01116, G12C); experiment: KRAS Binding Disruption Assay (AlphaScreen; biotinylated KRpep-2d analogue or RAF1-RBD), G12C; conditions: geometric mean, read-out: KRAS GMean IC50 (uM) MUTATION: G12C
T2 construct: G12D or G12C-mutant human KRAS (amino acid residues 1-188) with FLAG tag; made in house; host or cells: E. coli
T2 sequence (P01116 1-188 isoform P01116-2 G12C): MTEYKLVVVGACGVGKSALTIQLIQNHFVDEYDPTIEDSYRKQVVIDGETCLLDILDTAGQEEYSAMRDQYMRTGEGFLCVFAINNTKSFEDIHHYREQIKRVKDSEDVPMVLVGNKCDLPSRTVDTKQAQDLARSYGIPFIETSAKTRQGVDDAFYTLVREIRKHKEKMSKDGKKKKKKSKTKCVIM
How it was run: as §1

SMILES	IC50 [1] [µM]	IC50 [2] [µM]
Fc1c(-c2c[nH]c3cccc(C4CC4)c23)ccc2c(N3C[C@H]4CC[C@@H](C3)N4)nc(OCC34CCCN3CCC4)nc12 [P-0697, 4-((1R,5S)-3,8-diazabicyclo[3.2.1]octan-3-yl)-7-(4-cyclopropyl-1H-indol-3-yl)-8-fluoro-2-((tetrahydro-1H-pyrrolizin-7a(5H)-yl)methoxy)quinazoline]	0.0001 to 10	0.0001 to 10
CCc1cccc2[nH]cc(-c3ccc4c(N5C[C@H]6CC[C@@H](C5)N6)nc(OCC56CCCN5CCC6)nc4c3)c12 [P-0698, 4-((1R,5S)-3,8-diazabicyclo[3.2.1]octan-3-yl)-7-(4-ethyl-1H-indol-3-yl)-2-((tetrahydro-1H-pyrrolizin-7a(5H)-yl)methoxy)quinazoline]	0.0001 to 10	10 to 100
CCc1cccc2[nH]cc(-c3ccc4c(N5C[C@H]6CC[C@@H](C5)N6)nc(OCC56CCCN5CCC6)nc4c3F)c12 [P-0699, 4-((1R,5S)-3,8-diazabicyclo[3.2.1]octan-3-yl)-7-(4-ethyl-1H-indol-3-yl)-8-fluoro-2-((tetrahydro-1H-pyrrolizin-7a(5H)-yl)methoxy)quinazoline]	0.0001 to 10	0.0001 to 10
Clc1cccc2[nH]cc(-c3ccc4c(N5C[C@H]6CC[C@@H](C5)N6)nc(OCC56CCCN5CCC6)nc4c3)c12 [P-0700, 4-((1R,5S)-3,8-diazabicyclo[3.2.1]octan-3-yl)-7-(4-chloro-1H-indol-3-yl)-2-((tetrahydro-1H-pyrrolizin-7a(5H)-yl)methoxy)quinazoline]	0.0001 to 10	10 to 100
Oc1cc(-c2ccc3c(N4C[C@H]5CC[C@@H](C4)N5)nc(NCC4CCOCC4)nc3c2F)c2ccccc2c1 [P-0701, 4-(4-((1R,5S)-3,8-diazabicyclo[3.2.1]octan-3-yl)-8-fluoro-2-(((tetrahydro-2H-pyran-4-yl)methyl)amino)quinazolin-7-yl)naphthalen-2-ol]	0.0001 to 10	100 to 1000
CS(=O)(=O)NC1CN(c2nc(N3C[C@H]4CC[C@@H](C3)N4)c3ccc(-c4cc(O)cc5ccccc45)c(F)c3n2)C1 [P-0702, N-(1-(4-((1R,5S)-3,8-diazabicyclo[3.2.1]octan-3-yl)-8-fluoro-7-(3-hydroxynaphthalen-1-yl)quinazolin-2-yl)azetidin-3-yl)methanesulfonamide]	0.0001 to 10	10 to 100
Oc1cc(-c2ccc3c(N4C[C@H]5CC[C@@H](C4)N5)nc(N4CC(N5CCOCC5)C4)nc3c2F)c2ccccc2c1 [P-0703, 4-(4-((1R,5S)-3,8-diazabicyclo[3.2.1]octan-3-yl)-8-fluoro-2-(3-morpholinoazetidin-1-yl)quinazolin-7-yl)naphthalen-2-ol]	0.0001 to 10	10 to 100
CN(C)C1CCN(c2nc(N3C[C@H]4CC[C@@H](C3)N4)c3ccc(-c4cc(O)cc5ccccc45)c(F)c3n2)C1 (stereo partly drawn) [P-0704, 4-(4-((1R,5S)-3,8-diazabicyclo[3.2.1]octan-3-yl)-2-(3-(dimethylamino)pyrrolidin-1-yl)-8-fluoroquinazolin-7-yl)naphthalen-2-ol]	0.0001 to 10	10 to 100
CN1CCC2CN(c3nc(N4C[C@H]5CC[C@@H](C4)N5)c4ccc(-c5cc(O)cc6ccccc56)c(F)c4n3)CC21 (stereo partly drawn) [P-0705, 4-(4-((1R,5S)-3,8-diazabicyclo[3.2.1]octan-3-yl)-8-fluoro-2-(1-methylhexahydropyrrolo[3,4-b]pyrrol-5(1H)-yl)quinazolin-7-yl)naphthalen-2-ol]	0.0001 to 10	10 to 100
Oc1cc(-c2ccc3c(N4C[C@H]5CC[C@@H](C4)N5)nc(N4CC(O)(C(F)(F)F)C4)nc3c2F)c2ccccc2c1 [P-0706, 1-(4-((1R,5S)-3,8-diazabicyclo[3.2.1]octan-3-yl)-8-fluoro-7-(3-hydroxynaphthalen-1-yl)quinazolin-2-yl)-3-(trifluoromethyl)azetidin-3-ol]	0.0001 to 10	100 to 1000
CCc1c(F)ccc2[nH]cc(-c3ccc4c(N5C[C@H]6CC[C@@H](C5)N6)nc(OCC56CCCN5CCC6)nc4c3F)c12 [P-0709, 4-((1R,5S)-3,8-diazabicyclo[3.2.1]octan-3-yl)-7-(4-ethyl-5-fluoro-1H-indol-3-yl)-8-fluoro-2-((tetrahydro-1H-pyrrolizin-7a(5H)-yl)methoxy)quinazoline]	0.0001 to 10	0.0001 to 10

Next, values leading:

IC50 [1] [µM]	IC50 [2] [µM]	SMILES
0.0001 to 10	10 to 100	Oc1cc(-c2ccc3c(N4C[C@H]5CC[C@@H](C4)N5)nc(OCCn4cncn4)nc3c2F)c2ccccc2c1 [P-0689, 4-(2-(2-(1H-1,2,4-triazol-1-yl)ethoxy)-4-((1R,5S)-3,8-diazabicyclo[3.2.1]octan-3-yl)-8-fluoroquinazolin-7-yl)naphthalen-2-]
0.0001 to 10	10 to 100	Oc1cc(-c2ccc3c(N4C[C@H]5CC[C@@H](C4)N5)nc(OCCn4cccn4)nc3c2F)c2ccccc2c1 [P-0690, 4-(2-(2-(1H-pyrazol-1-yl)ethoxy)-4-((1R,5S)-3,8-diazabicyclo[3.2.1]octan-3-yl)-8-fluoroquinazolin-7-yl)naphthalen-2-ol]
0.0001 to 10	10 to 100	Oc1cc(-c2ccc3c(N4C[C@H]5CC[C@@H](C4)N5)nc(OCCn4cccc4)nc3c2F)c2ccccc2c1 [P-0691, 4-(2-(2-(1H-pyrrol-1-yl)ethoxy)-4-((1R,5S)-3,8-diazabicyclo[3.2.1]octan-3-yl)-8-fluoroquinazolin-7-yl)naphthalen-2-ol]
0.0001 to 10	10 to 100	CC(=O)NCCOc1nc(N2C[C@H]3CC[C@@H](C2)N3)c2ccc(-c3cc(O)cc4ccccc34)c(F)c2n1 [P-0692, N-(2-((4-((1R,5S)-3,8-diazabicyclo[3.2.1]octan-3-yl)-8-fluoro-7-(3-hydroxynaphthalen-1-yl)quinazolin-2-yl)oxy)ethyl)acetamide]
0.0001 to 10	10 to 100	O=C1CCCN1CCOc1nc(N2C[C@H]3CC[C@@H](C2)N3)c2ccc(-c3cc(O)cc4ccccc34)c(F)c2n1 [P-0693, 1-(2-((4-((1R,5S)-3,8-diazabicyclo[3.2.1]octan-3-yl)-8-fluoro-7-(3-hydroxynaphthalen-1-yl)quinazolin-2-yl)oxy)ethyl)pyrrolidin-2-one]
0.0001 to 10	10 to 100	O=C1CCC(=O)N1CCOc1nc(N2C[C@H]3CC[C@@H](C2)N3)c2ccc(-c3cc(O)cc4ccccc34)c(F)c2n1 [P-0694, 1-(2-((4-((1R,5S)-3,8-diazabicyclo[3.2.1]octan-3-yl)-8-fluoro-7-(3-hydroxynaphthalen-1-yl)quinazolin-2-yl)oxy)ethyl)pyrrolidine-2,5-dione]
0.0001 to 10	10 to 100	Oc1cc(-c2ccc3c(N4C[C@H]5CC[C@@H](C4)N5)nc(OCCN4CCOCC4)nc3c2F)c2ccccc2c1 [P-0695, 4-(4-((1R,5S)-3,8-diazabicyclo[3.2.1]octan-3-yl)-8-fluoro-2-(2-morpholinoethoxy)quinazolin-7-yl)naphthalen-2-ol]
0.0001 to 10	10 to 100	Oc1cc(-c2ccc3c(N4C[C@H]5CC[C@@H](C4)N5)nc(OCCN4CCCC4)nc3c2F)c2ccccc2c1 [P-0696, 4-(4-((1R,5S)-3,8-diazabicyclo[3.2.1]octan-3-yl)-8-fluoro-2-(2-(pyrrolidin-1-yl)ethoxy)quinazolin-7-yl)naphthalen-2-ol]
